Measurements taken from US9084766B2, “Compounds and compositions for targeting cancer stem cells” (Boston Biomedical, Inc., priority 2010, dated 2015).
Several values for one entry are separate records, joined by “and”; a condition that tells them apart may be missing. Equal entries are not always repeated. Where two headings read alike, the source gives them in different places.

Columns and labels:
[1] = Pharmacokinetics in mice of particle size formulations; type: in vivo; details: particle size 125-150 micron versus 2 and 20 micron, 100 mg/kg oral, 20% Gelucire 44/14 and 1% Tween 80
Procedure: In an experiment, micronized Compound 1 prepared in step 6 of Example 2 with a mean particle size of 2 micron, 20 microns, 150 microns were formulated as suspensions in 20% Gelucire 44/14 and 1% Tween 80 and administered orally to mice at 100 mg/kg. Each time point represents the average of 3 mice (FIG. 16).

[2] = Toxicity / body weight in tumor-bearing mice; type: in vivo
Procedure: All regimens were administered daily (qd). Body weights were evaluated periodically during treatment. Each point represents the mean±SEM of eight tumors. […] All regimens were administered daily (qd). Body weights were evaluated periodically during treatment. Each point represents the mean±SEM of eight tumors.
Daily examinations into the health status of each animal were also conducted. Body weights were checked every three days. Food and water was supplied daily according to the animal husbandry procedures of the facility. Treatment producing>20% lethality and or >20% net body weight loss were considered toxic. Results are expressed as mean tumor volume (mm^3)±SE. P Values<0.05 are considered to be statistically relevant.

[3] = test system: CD34+ BM Erythroid; experiment: IC50 versus treatment time, CD34+ BM Erythroid; type: cell-based; details: normal cells CD34+ BM Erythroid, treatment time 12-24 h
Procedure: The studies described herein discovered counter-intuitively that cancer cells and cancer stem cells requires much shorter exposure than normal cells to be killed by Compound 1. Normal cells can tolerate up to 24 hours of exposure to Compound 1. Furthermore, the studies here discovered that normal cells can recover after a short period of no-drug exposure, while cancer cells cannot recover once they are exposed to a certain concentration of the Compound 1 for at least 2 hours. Based on these studies, a special pharmacokinetic exposure [termed selective pharmacokinetic profile (SPP), or preferred pharmacokinetic profile (PPP), which is used interchangeably in this publication] was designed for Compound 1 using the data shown below in Table 14 for achieving selective antitumor activity in patients (FIG. 24).

[4] = Phase I clinical trial: plasma pharmacokinetics; type: in vivo, human; parameters: AUC0-24 hrs: concentration or dose not given beside the values; details: for AUC0-24 hrs: in µM·h
Procedure: A favorable PK profile with oral bid dosing was also observed. The plasma concentration reached several folds over efficacious concentration (in vitro IC50).
In yet another suitable dosing regimen, Compound 1 is administered with food which delays the Tmax (Table 13).

CC(=O)c1cc2c(o1)C(=O)c1ccccc1C2=O [Compound 1, 2-acetyl-4H,9H-naphtho[2,3-b]furan-4,9-dione]
plasma exposure [1]: lower level of exposure | mice died during the treatment ([2]; about 90% pure, FaDu experiment (upper panel)): 4 mice | mice died during the treatment ([2]; about 90% pure, MDA-231 experiment (lower panel)): 3 mice | toxicity ([2]; about 90% pure, in GELUCIRE, po qd, FaDu or MDA-231 bearing mice (FIG. 13)): Significant toxicity | toxicity ([2]; composition of particle size less than 5 micron, mice): no observed toxicity | tolerability / toxicity ([2]; higher purity (about 95% or greater), po qd, FaDu or MDA-231 bearing mice (FIG. 14)): well-tolerated and showed no signs of toxicity | IC50 [3]: > 30 µM | clearance from blood ([4]; 20 mg QD (FIG. 21)): rapidly cleared from the blood | time plasma concentration sustained at at least 1.5 μM ([4]; 320 mg/day dose level): over 8 hours | plasma concentration sustained ([4]; 320 mg/day dose level, for over 8 hours): at least 1.5 μM | Cmax ([4]; Fasting): 2550 nM | AUC0-24 hrs ([4]; Fasting): 20.72 | pharmacokinetics (linearity) ([4]; doses through about 1000 mg/day): apparent linear pharmacokinetics | AUC(0-t) ([4]; human, plasma, oral, 80 mg, total daily dose 80 mg, BID dosing, read-out: AUC0-24): 7.95 µM·h | AUC(0-t) ([4]; human, plasma, oral, 160 mg, total daily dose 160 mg, BID dosing, read-out: AUC0-24): 9.52 µM·h | AUC(0-t) ([4]; human, plasma, oral, 320 mg, total daily dose 320 mg, BID dosing, read-out: AUC0-24): 29.8 µM·h | AUC(0-t) ([4]; human, plasma, oral, 400 mg, total daily dose 400 mg, BID dosing, read-out: AUC0-24): 53.6 µM·h | AUC(0-t) ([4]; human, plasma, oral, 600 mg, total daily dose 600 mg, BID dosing, read-out: AUC0-24): 27.3 µM·h | AUC(0-t) ([4]; human, plasma, oral, 800 mg, total daily dose 800 mg, BID dosing, read-out: AUC0-24): 26.4 µM·h | AUC(0-t) ([4]; human, plasma, oral, 1000 mg, total daily dose 1000 mg, BID dosing, read-out: AUC0-24): 42.6 µM·h | AUC(0-t) ([4]; human, plasma, oral, 1400 mg, total daily dose 1400 mg, BID dosing, read-out: AUC0-24): 28.4 µM·h | AUC(0-t) ([4]; human, plasma, oral, 2000 mg, total daily dose 2000 mg, BID dosing, read-out: AUC0-24): 39.1 µM·h | Cmax ([4]; human, plasma, oral, Fasting): 2010 nM | AUC(0-t) ([4]; human, plasma, oral, Fasting, read-out: AUC0-24 hrs): 20.1 µM·h | Tmax ([4]; human, plasma, oral, patient 20, Fasting): 2 h | Tmax ([4]; human, plasma, oral, patient 20, With Food): 8 h | Tmax ([4]; human, plasma, oral, patient 20, With Milk): 2 h | Tmax ([4]; human, plasma, oral, patient 21, Fasting): 6 h | Tmax ([4]; human, plasma, oral, patient 21, With Food): 6 h | Tmax ([4]; human, plasma, oral, patient 21, With Milk): 6 h | Tmax ([4]; human, plasma, oral, patient 22, Fasting): 8 h | Tmax ([4]; human, plasma, oral, patient 22, With Food): 10 h | Tmax ([4]; human, plasma, oral, patient 22, With Milk): 8 h | Tmax ([4]; human, plasma, oral, patient 24, With Food): 10 h | Tmax ([4]; human, plasma, oral, patient 24, With Milk): 6.3 h | Tmax ([4]; human, plasma, oral, patient 27, With Food): 6 h | Tmax ([4]; human, plasma, oral, patient 27, With Milk): 0.5 h | Tmax ([4]; human, plasma, oral, patient 28, With Food): 10 h | Tmax ([4]; human, plasma, oral, patient 28, With Milk): 6 h | Cmax ([4]; human, plasma, oral, with Milk): 3050 nM | AUC(0-t) ([4]; human, plasma, oral, with Milk, read-out: AUC0-24 hrs): 31.4 µM·h | drug accumulation ([4]; repeated daily dosing every 28 days, doses through about 1000 mg/day): no evidence of drug accumulation | Cmax ([4]; with Milk): 2890 nM | AUC0-24 hrs Fold Change ([4]; with Milk versus Fasting): 1.56 and 1.55 | Cmax Fold Change ([4]; with Milk versus Fasting): 1.52 and 1.13 | AUC0-24 hrs ([4]; with Milk): 32.16
